Laboratory results from US20210405030A1, “MEANS AND METHODS FOR DETERMINING METABOLIC ADAPTATION” (EnFin GmbH, priority 2018, published 2021).
Read-outs that look alike come from different tables or passages of the source. Square brackets hold non-standard residues; d marks the D form. Ends that are not written are not given here. pY = N[C@@H](Cc1ccc(OP(=O)(O)O)cc1)C(=O)O

How the values were obtained:
[1] = test system: Healthy blood donor mononuclear lymphocytes; settings: for Blood test result: reference interval 2.0±0.3
From the text: The cellular model used herein discriminates between an immuno activating environment and an immune suppressive environment. An immuno activating environment comprises supplementation of growth factors/serum and allows growth and survival of blood derived immune cells. An immuno suppressive environment comprises deprivation of growth factors/serum (starvation) and diminishes growth and survival of blood derived immune cells. […] In both conditions a switch to anaerobic glycolysis was induced pharmacologically and proliferation and survival of immune cells was compared to unmodified immune cells.
Healthy blood donor mononuclear lymphocytes were cultured under normoxia (21%) and anoxia (0%). Enzyme activities of PK low affinity (PK la), PK high affinity (PK ha) and Lactate dehydrogenase (LDH) were measured in the homogenates.

[2] = test system: PBMCs; experiment: Proliferation and survival of PBMCs in immuno activating (10% FCS) or immuno suppressive (starvation) environment (FIG. 1); assay type: cell-based, human; settings: for proliferation and survival: GM-CSF 20 ng/ml, HMGB1 variants 200 nM
Method: FIG. 1: Proliferation of PBMCs under the indicated conditions; P-M2 tide: induction of glycolysis by incubation with P-M2 tide; A) control (no activator compound); B) hGM-CSF added; C) to G) HMGB1 or variant thereof added.
To evaluate to what extent and by which agent anerg immune cells could be stimulated we used recombinant human GM-CSF (20 ng/ml, FIG. 1 B) or recombinant/synthetic variants of the immune system stimulating human HMGB1 cytokine (200 nM, FIG. 1 C-G).

For GGAVDDD[pY]AQFANGG [P-M2 tide], the Blood test result ([1]; 10% FCS (immuno activating environment) + P-M2 tide) was 0.30, the “shift from OXPHOS to anaerobic glycolysis” value ([1]; ex vivo human immune cells, blocking the PK tetramer) was “enables immune cells to shift from OXPHOS to anaerobic glycolysis” and the Blood test result ([1]; starvation (immune suppressive environment) + P-M2 tide) was 1.37.

In the case of “GM-CSF: human granulocyte monocyte colony stimulating factor, recombinant”, the proliferation and survival ([2]; immuno-suppressed (starved) cells showing a switch to anaerobic glycolysis) is reported as “fully rescued from cell death and showed increased proliferation (and survival)” and the proliferation and survival ([2]; immuno-suppressed (starved) cells with no switch to anaerobic glycolysis) is reported as “partly rescued”.

B1: Wildtype human recombinant HMGB1: high mobility group box 1 protein, immuno-stimulating cytokine and DAMP (SEQ ID NO:3) (protein, listed as Homo sapiens)
chain: MGKGDPKKPRGKMSSYAFFVQTCREEHKKKHPDASVNFSEFSKKCSERWKTMSAKEKGKFEDMAKADKARYEREMKTYIPPKGETKKKFKDPNAPKRPPSAFFLFCSEYRPKIKGEHPGLSIGDVAKKLGEMWNNTAADDKQPYEKKAAKLKEKYEKDIAAYRAKGKPDAAKKGVVKAEKSKKKKEEEEDEEDEEDEEEEEDEEDEDEEEDDDDE
In the case of B1, the “proliferation and survival of immune cells” value ([2]; 200 nM, condition not further specified) is reported as “failed to increase proliferation and survival”.
